Experiments:
Assay in all cases: cells
NB7 = format: functional, cell-based; settings: Homo sapiens;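 note: growth inhibition of NB7 cells, read out with a cell viability assay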
Description: SANGER: Inhibition of human NB7 cell growth in a cell viability assay.

D-247MG = format: functional, cell-based, Homo sapiens; settings: Homo sapiens, D-247MG
Description: SANGER: Inhibition of human D-247MG cell growth in a cell viability assay.

SW780 = format: functional, cell-based, Homo sapiens; settings: Homo sapiens, SW780;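 note: growth inhibition of the cells, read out with a cell viability assay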
Description: SANGER: Inhibition of human SW780 cell growth in a cell viability assay.

KM12 = format: functional, cell-based, Homo sapiens; settings: Homo sapiens, KM12;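 note: KM12 cell growth inhibition, read out with a cell viability assay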
Description: SANGER: Inhibition of human KM12 cell growth in a cell viability assay.

YAPC = format: functional, cell-based, Homo sapiens; settings: Homo sapiens, YAPC;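 note: growth inhibition of YAPC cells, measured with a cell viability assay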
Description: SANGER: Inhibition of human YAPC cell growth in a cell viability assay.

MIA PaCa-2 = format: functional, cell-based, Homo sapiens; settings: Homo sapiens, MIA PaCa-2;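 note: growth inhibition of MIA PaCa-2 cells, read out with a cell viability assay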
Description: SANGER: Inhibition of human MIA-PaCa-2 cell growth in a cell viability assay.

KP-4 = format: functional, cell-based, Homo sapiens; settings: Homo sapiens, KP-4; read-out: IC50;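 note: human KP-4 cells, with growth inhibition read out through a cell viability assay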
Description: SANGER: Inhibition of human KP-4 cell growth in a cell viability assay.

DK-MG = format: functional, cell-based, Homo sapiens; settings: Homo sapiens, DK-MG;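 note: growth inhibition of DK-MG cells, read out with a cell viability assay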
Description: SANGER: Inhibition of human DK-MG cell growth in a cell viability assay.

BT-20 = format: functional, cell-based, Homo sapiens; settings: Homo sapiens, BT-20;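 note: cell viability assay measuring suppression of growth in human BT-20 cells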
Description: SANGER: Inhibition of human BT-20 cell growth in a cell viability assay.

U-266 = format: functional, cell-based; settings: Homo sapiens
Description: SANGER: Inhibition of human U-266 cell growth in a cell viability assay.

Daoy = format: functional, cell-based, Homo sapiens; settings: Homo sapiens, Daoy;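 note: daoy cell growth inhibition, read out as cell viability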
Description: SANGER: Inhibition of human Daoy cell growth in a cell viability assay.

NCI-H2342 = format: functional, cell-based; settings: Homo sapiens;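 note: growth inhibition of the cancer cell line, determined with a cell viability assay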
Description: SANGER: Inhibition of human NCI-H2342 cell growth in a cell viability assay.

SW982 = format: functional, cell-based; settings: Homo sapiens;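 note: growth inhibition of SW982 cells, read out with a cell viability assay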
Description: SANGER: Inhibition of human SW982 cell growth in a cell viability assay.

SK-N-DZ = format: functional, cell-based, Homo sapiens; settings: Homo sapiens, SK-N-DZ;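 note: growth inhibition of the cancer cell line, read out through a viability assay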
Description: SANGER: Inhibition of human SK-N-DZ cell growth in a cell viability assay.

BB49-HNC = format: functional, cell-based, Homo sapiens; settings: Homo sapiens, BB49-HNC;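 note: cell viability assay read-out, reported as inhibition of BB49-HNC cell growth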
Description: SANGER: Inhibition of human BB49-HNC cell growth in a cell viability assay.

A673 = format: functional, cell-based, Homo sapiens; settings: Homo sapiens, A673;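 note: growth inhibition of human A673 cells, read out through a cell viability assay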
Description: SANGER: Inhibition of human A673 cell growth in a cell viability assay.

KS-1 = format: functional, cell-based, Homo sapiens; settings: Homo sapiens, KS-1;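 note: growth inhibition of KS-1 cells, read out with a cell viability assay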
Description: SANGER: Inhibition of human KS-1 cell growth in a cell viability assay.

697 = format: functional, cell-based; settings: Homo sapiens
Description: SANGER: Inhibition of human 697 cell growth in a cell viability assay.

MEG-01 = format: functional, cell-based; settings: Homo sapiens;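 note: growth inhibition of MEG-01 cells, read out by a cell viability assay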
Description: SANGER: Inhibition of human MEG-01 cell growth in a cell viability assay.

UMC-11 = format: functional, cell-based, Homo sapiens; settings: Homo sapiens, UMC-11;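 note: growth inhibition of UMC-11 cells, read out with a cell viability assay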
Description: SANGER: Inhibition of human UMC-11 cell growth in a cell viability assay.

COLO-800 = format: functional, cell-based, Homo sapiens; settings: Homo sapiens, COLO-800;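 note: growth inhibition of COLO-800 cells, read out with a cell viability assay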
Description: SANGER: Inhibition of human COLO-800 cell growth in a cell viability assay.

MKN-28 = format: functional, cell-based, Homo sapiens; settings: Homo sapiens, MKN-28;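 note: cell viability assay read-out, IC50 reflects suppression of growth of human MKN-28 cells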
Description: SANGER: Inhibition of human MKN28 cell growth in a cell viability assay.

EFM-19 = format: functional, cell-based, Homo sapiens; settings: Homo sapiens, EFM-19;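 note: growth inhibition of human EFM-19 cells, measured in a cell viability assay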
Description: SANGER: Inhibition of human EFM-19 cell growth in a cell viability assay.

NCI-H747 = format: functional, cell-based; settings: Homo sapiens;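 note: growth inhibition of human NCI-H747 cells, read out by a cell viability assay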
Description: SANGER: Inhibition of human NCI-H747 cell growth in a cell viability assay.

LB373-MEL-D = format: functional, cell-based, Homo sapiens; settings: Homo sapiens, LB373-MEL-D;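 note: growth inhibition of the cell line, read out in a cell viability assay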
Description: SANGER: Inhibition of human LB373-MEL-D cell growth in a cell viability assay.

NCI-H727 = format: functional, cell-based, Homo sapiens; settings: Homo sapiens, NCI-H727;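 note: growth inhibition of human NCI-H727 cells, read out with a cell viability assay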
Description: SANGER: Inhibition of human NCI-H727 cell growth in a cell viability assay.

D283 Med = format: functional, cell-based, Homo sapiens; settings: Homo sapiens, D283 Med
Description: SANGER: Inhibition of human D-283MED cell growth in a cell viability assay.

HO-1-N-1 = format: functional, cell-based, Homo sapiens; settings: Homo sapiens, HO-1-N-1;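 note: growth inhibition of human HO-1-N-1 cells, read out with a cell viability assay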
Description: SANGER: Inhibition of human HO-1-N-1 cell growth in a cell viability assay.

OE19 = format: functional, cell-based, Homo sapiens; settings: Homo sapiens, OE19;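 note: growth inhibition of OE19 cells, measured through a cell viability read-out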
Description: SANGER: Inhibition of human OE19 cell growth in a cell viability assay.

NY = format: functional, cell-based, Homo sapiens; settings: Homo sapiens, NY
Description: SANGER: Inhibition of human NY cell growth in a cell viability assay.

MCF7 = format: functional, cell-based, Homo sapiens; settings: Homo sapiens, MCF7;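 note: growth inhibition of human MCF7 cells, read out with a cell viability assay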
Description: SANGER: Inhibition of human MCF7 cell growth in a cell viability assay.

PANC-03-27 = format: functional, cell-based, Homo sapiens; settings: Homo sapiens, PANC-03-27
Description: SANGER: Inhibition of human PANC-03-27 cell growth in a cell viability assay.

PSN1 = format: functional, cell-based, Homo sapiens; settings: Homo sapiens, PSN1;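 note: suppression of growth of human PSN1 cells, read out by a cell viability assay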
Description: SANGER: Inhibition of human PSN1 cell growth in a cell viability assay.

SCC-25 = format: functional, cell-based, Homo sapiens; settings: Homo sapiens, SCC-25;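 note: growth inhibition of SCC-25 cells, measured with a cell viability assay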
Description: SANGER: Inhibition of human SCC-25 cell growth in a cell viability assay.

NEC8 = format: functional, cell-based, Homo sapiens; settings: Homo sapiens, NEC8;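 note: growth inhibition of human NEC8 cells, read out by a cell viability assay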
Description: SANGER: Inhibition of human NEC8 cell growth in a cell viability assay.

786-0 = format: functional, cell-based, Homo sapiens; settings: Homo sapiens
Description: SANGER: Inhibition of human 786-0 cell growth in a cell viability assay.

T84 = format: functional, cell-based, Homo sapiens; settings: Homo sapiens, T84;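 note: growth inhibition measured with a cell viability readout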
Description: SANGER: Inhibition of human T84 cell growth in a cell viability assay.

KYSE-520 cell line = format: functional, cell-based, Homo sapiens; settings: Homo sapiens, KYSE-520;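 note: growth inhibition of human KYSE-520 cells, read out with a viability assay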
Description: SANGER: Inhibition of human KYSE-520 cell growth in a cell viability assay.

HuCCT-1 = format: functional, cell-based, Homo sapiens, HuCCT1; settings: Homo sapiens, HuCCT-1;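 note: growth inhibition of HuCCT-1 cells, read out by a cell viability assay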
Description: SANGER: Inhibition of human HuCCT1 cell growth in a cell viability assay.

MV4-11 = format: functional, cell-based, MV-4-11; settings: Homo sapiens;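 note: cell viability readout measuring growth inhibition of human MV-4-11 cells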
Description: SANGER: Inhibition of human MV-4-11 cell growth in a cell viability assay.

DJM-1 = format: functional, cell-based, Homo sapiens; settings: Homo sapiens, DJM-1;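 note: growth inhibition of human DJM-1 cells, read out by a cell viability assay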
Description: SANGER: Inhibition of human DJM-1 cell growth in a cell viability assay.

SW1783 = format: functional, cell-based; settings: Homo sapiens;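 note: cell growth inhibition measured with a viability assay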
Description: SANGER: Inhibition of human SW1783 cell growth in a cell viability assay.

ES8 = format: functional, cell-based, Homo sapiens; settings: Homo sapiens, ES8;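 note: growth inhibition of human ES8 cells, read out with a cell viability assay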
Description: SANGER: Inhibition of human ES8 cell growth in a cell viability assay.

HSC-3 = format: functional, cell-based, Homo sapiens; settings: Homo sapiens, HSC-3
Description: SANGER: Inhibition of human HSC-3 cell growth in a cell viability assay.

LCLC-97TM1 = format: functional, cell-based, Homo sapiens; settings: Homo sapiens, LCLC-97TM1;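 note: cell viability assay measuring growth inhibition of human LCLC-97TM1 cells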
Description: SANGER: Inhibition of human LCLC-97TM1 cell growth in a cell viability assay.

BB30-HNC = format: functional, cell-based, Homo sapiens; settings: Homo sapiens, BB30-HNC;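 note: growth inhibition of the cultured cell line, read out by a cell viability assay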
Description: SANGER: Inhibition of human BB30-HNC cell growth in a cell viability assay.

MKN-45 = format: functional, cell-based, Homo sapiens; settings: Homo sapiens, MKN-45;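 note: growth inhibition of human MKN-45 cells, measured with a cell viability assay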
Description: SANGER: Inhibition of human MKN45 cell growth in a cell viability assay.

TE-12 = format: functional, cell-based; settings: Homo sapiens;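 note: growth inhibition of TE-12 cells, read out by a cell viability assay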
Description: SANGER: Inhibition of human TE-12 cell growth in a cell viability assay.

J-RT3-T3-5 = format: functional, cell-based; settings: Homo sapiens;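 note: cell viability assay measuring growth inhibition of human J-RT3-T3-5 cells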
Description: SANGER: Inhibition of human J-RT3-T3-5 cell growth in a cell viability assay.

LNCaP-Clone-FGC = format: functional, cell-based, Homo sapiens; settings: Homo sapiens, LNCaP-Clone-FGC
Description: SANGER: Inhibition of human LNCaP-Clone-FGC cell growth in a cell viability assay.

EW-18 = format: functional, cell-based; settings: Homo sapiens;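 note: growth inhibition of EW-18 cells, read out by a cell viability assay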
Description: SANGER: Inhibition of human EW-18 cell growth in a cell viability assay.

Measured: IC50

O=c1cc(-c2cccc3c2Sc2ccccc2S3)oc(N2CCOCC2)c1 [KU-55933]
9.21 µM: KM12
not listed: EW-18
> 10 µM: all other assays above

CCOc1nc(NC(=O)Cc2cc(OC)ccc2OC)cc(N)c1C#N
2.27 µM: NB7
> 10 µM: all other assays above

O=C1N=C(NCc2cccs2)S/C1=C\c1ccc2ncccc2c1
4.47 µM: NEC8
4.11 µM: PSN1
2.02 µM: SK-N-DZ
not listed: LB373-MEL-D
> 5 µM: all other assays above

— ChEMBL document CHEMBL1201861, “Genomics of Drug Sensitity in Cancer screening data, Wellcome Trust Sanger Institute”
